What is called IC50 is the concentration that inhibits the measured activity by half.

The target of one experiment is T1, PTPN2 (i.e., TC-PTP) (Homo sapiens, UniProt P17706).
T1 sequence (P17706 1-415): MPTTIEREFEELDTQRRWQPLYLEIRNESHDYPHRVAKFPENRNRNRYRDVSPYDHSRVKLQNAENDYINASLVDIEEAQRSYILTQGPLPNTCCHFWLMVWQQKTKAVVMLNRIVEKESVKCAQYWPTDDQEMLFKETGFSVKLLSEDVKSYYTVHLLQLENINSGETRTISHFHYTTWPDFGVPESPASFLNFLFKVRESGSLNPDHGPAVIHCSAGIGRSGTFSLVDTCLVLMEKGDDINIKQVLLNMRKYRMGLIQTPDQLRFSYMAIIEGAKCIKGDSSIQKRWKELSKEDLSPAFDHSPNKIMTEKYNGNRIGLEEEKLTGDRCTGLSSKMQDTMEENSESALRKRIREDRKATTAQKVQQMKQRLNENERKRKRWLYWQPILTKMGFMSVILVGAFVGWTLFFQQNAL
The experiment in a line: Phosphatase activity assay (DiFMUP substrate), PTPN2. The class given is biochemical. The note with it: compounds binned ≤1 uM or >1 uM. The gist of the method:
(§1)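 Continuous fluorogenic readout of DiFMUP dephosphorylation at room temperature, substrate set at Km for each phosphatase (about 45 μM in the PTPN2 assay). The buffer contains 1 mM DTT and 0.001% Tween-20, pH 7.5.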

The target in a further experiment is T2, PTPN1 (i.e., PTP1B) (Homo sapiens, UniProt P18031).
T2 sequence (P18031 1-435): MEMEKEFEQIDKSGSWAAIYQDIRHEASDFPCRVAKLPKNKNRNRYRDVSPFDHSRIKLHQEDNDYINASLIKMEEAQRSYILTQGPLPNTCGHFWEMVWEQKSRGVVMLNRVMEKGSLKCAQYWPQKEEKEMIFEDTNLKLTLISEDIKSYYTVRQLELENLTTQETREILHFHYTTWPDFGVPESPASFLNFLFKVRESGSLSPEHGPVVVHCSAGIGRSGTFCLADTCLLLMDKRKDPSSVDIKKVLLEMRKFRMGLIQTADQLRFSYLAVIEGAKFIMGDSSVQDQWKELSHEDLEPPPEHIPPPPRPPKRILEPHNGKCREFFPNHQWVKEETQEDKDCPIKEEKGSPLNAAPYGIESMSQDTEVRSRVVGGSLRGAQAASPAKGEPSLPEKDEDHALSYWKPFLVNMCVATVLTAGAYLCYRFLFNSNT
Briefly: Phosphatase activity assay (DiFMUP substrate), PTP1B. The class given is biochemical. Particulars: compounds binned ≤1 uM or >1 uM. The gist of the method: as §1

Some results are limits rather than exact numbers.

On to `O=C1CN(c2c(O)ccc(C3=CCN(C4CC4)CC3)c2F)S(=O)(=O)N1` [Compound 316, 5-(3-(1-cyclopropyl-1,2,3,6-tetrahydropyridin-4-yl)-2-fluoro-6-hydroxyphenyl)-1,2,5-thiadiazolidin-3-one 1,1-dioxide], for which the IC50 on PTPN2 (i.e., TC-PTP) was at most 1 µM; at PTPN1 (i.e., PTP1B), at most 1 µM.
For `O=C1CN(c2c(O)ccc(C3=CCC(NS(=O)(=O)C4CC4)CC3)c2F)S(=O)(=O)N1` (stereo not shown) [Compound 317, N-(3′-(1,1-dioxido-4-oxo-1,2,5-thiadiazolidin-2-yl)-2′-fluoro-4′-hydroxy-2,3,4,5-tetrahydro-[1,1′-biphenyl]-4-yl)cyclopropanesulfonamide], the IC50 is at most 1 µM on PTPN2 (i.e., TC-PTP) and at most 1 µM at PTPN1 (i.e., PTP1B).
As to `O=C1CN(c2c(O)ccc(-c3cn(-c4ccc(C(F)(F)F)cc4)cn3)c2F)S(=O)(=O)N1` [Compound 318, 5-(2-fluoro-6-hydroxy-3-(1-(4-(trifluoromethyl)phenyl)-1H-imidazol-4-yl)phenyl)-1,2,5-thiadiazolidin-3-one 1,1-dioxide], the IC50 on PTPN2 (i.e., TC-PTP) is at most 1 µM; on PTPN1 (i.e., PTP1B) it was at most 1 µM.
For the molecule `Cn1nc(-c2ccc(O)c(N3CC(=O)NS3(=O)=O)c2F)cc1C1CC1(F)F` (stereo not shown) [Compound 319, 5-(3-(5-(2,2-difluorocyclopropyl)-1-methyl-1H-pyrazol-3-yl)-2-fluoro-6-hydroxyphenyl)-1,2,5-thiadiazolidin-3-one 1,1-dioxide], the IC50 was at most 1 µM on PTPN2 (i.e., TC-PTP) and at most 1 µM at PTPN1 (i.e., PTP1B).
On to `O=C1CN(c2c(O)ccc(-c3ccc(NS(=O)(=O)C4CC4)nc3)c2F)S(=O)(=O)N1` [Compound 320, N-(5-(3-(1,1-dioxido-4-oxo-1,2,5-thiadiazolidin-2-yl)-2-fluoro-4-hydroxyphenyl)pyridin-2-yl)cyclopropanesulfonamide], for which the IC50 on PTPN2 (i.e., TC-PTP) was at most 1 µM; at PTPN1 (i.e., PTP1B), at most 1 µM.
As for `O=C1CN(c2c(O)ccc(-c3cc(N4CCC5(CCCN5)C4)n[nH]3)c2F)S(=O)(=O)N1` (stereo not shown) [Compound 321, 5-(3-(3-(1,7-diazaspiro[4.4]nonan-7-yl)-1H-pyrazol-5-yl)-2-fluoro-6-hydroxyphenyl)-1,2,5-thiadiazolidin-3-one 1,1-dioxide], the IC50 at PTPN2 (i.e., TC-PTP) is at most 1 µM; at PTPN1 (i.e., PTP1B), at most 1 µM.
Take `NC1CCN(c2cc(-c3ccc(O)c(N4CC(=O)NS4(=O)=O)c3F)[nH]n2)C1` (stereo not shown) [Compound 322, 5-(3-(3-(3-aminopyrrolidin-1-yl)-1H-pyrazol-5-yl)-2-fluoro-6-hydroxyphenyl)-1,2,5-thiadiazolidin-3-one 1,1-dioxide]: the IC50 is at most 1 µM at PTPN2 (i.e., TC-PTP) and at most 1 µM at PTPN1 (i.e., PTP1B).
For `O=C1CN(c2c(O)ccc(-c3cc(N4CC5(CCC5)C4)n[nH]3)c2F)S(=O)(=O)N1` [Compound 323, 5-(3-(3-(2-azaspiro[3.3]heptan-2-yl)-1H-pyrazol-5-yl)-2-fluoro-6-hydroxyphenyl)-1,2,5-thiadiazolidin-3-one 1,1-dioxide], the IC50 is at most 1 µM at PTPN2 (i.e., TC-PTP) and at most 1 µM at PTPN1 (i.e., PTP1B).
On to `CC1(n2cc(-c3ccc(O)c(N4CC(=O)NS4(=O)=O)c3F)cn2)CC1` [Compound 324, 5-(2-fluoro-6-hydroxy-3-(1-(1-methylcyclopropyl)-1H-pyrazol-4-yl)phenyl)-1,2,5-thiadiazolidin-3-one 1,1-dioxide], for which the half-maximal inhibitory concentration (IC50) at PTPN2 (i.e., TC-PTP) is at most 1 µM; on PTPN1 (i.e., PTP1B), at most 1 µM.
On to `O=C1CN(c2c(O)ccc(-c3cn(-c4cccc(C(F)(F)F)c4)cn3)c2F)S(=O)(=O)N1` [Compound 325, 5-(2-fluoro-6-hydroxy-3-(1-(3-(trifluoromethyl)phenyl)-1H-imidazol-4-yl)phenyl)-1,2,5-thiadiazolidin-3-one 1,1-dioxide], for which the IC50 on PTPN2 (i.e., TC-PTP) was at most 1 µM; at PTPN1 (i.e., PTP1B), at most 1 µM.
Turning to `O=C1CN(c2c(O)ccc(-c3cc(C4CCOC4)n[nH]3)c2F)S(=O)(=O)N1` (stereo not shown) [Compound 326, 5-(2-fluoro-6-hydroxy-3-(3-(tetrahydrofuran-3-yl)-1H-pyrazol-5-yl)phenyl)-1,2,5-thiadiazolidin-3-one 1,1-dioxide], the half-maximal inhibitory concentration (IC50) is at most 1 µM at PTPN2 (i.e., TC-PTP) and at most 1 µM at PTPN1 (i.e., PTP1B).
